Reference: PMC3577938 (Organic & biomolecular chemistry, 2013)

Experiments:
Format in all cases: cell-based
human TLR8 = target: T1, human TLR8 (Homo sapiens, UniProt Q9NR97); assay: Human TLR8-specific reporter gene assay; details: for TLR8-agonistic potency/activity (in words): hTLR8 reporter gene assay; for Agonistic Activity (μM) TLR8: EC50 in human TLR8-specific reporter gene assay, Inactive = EC50 >100 μM
T1 sequence (Q9NR97 27-1041): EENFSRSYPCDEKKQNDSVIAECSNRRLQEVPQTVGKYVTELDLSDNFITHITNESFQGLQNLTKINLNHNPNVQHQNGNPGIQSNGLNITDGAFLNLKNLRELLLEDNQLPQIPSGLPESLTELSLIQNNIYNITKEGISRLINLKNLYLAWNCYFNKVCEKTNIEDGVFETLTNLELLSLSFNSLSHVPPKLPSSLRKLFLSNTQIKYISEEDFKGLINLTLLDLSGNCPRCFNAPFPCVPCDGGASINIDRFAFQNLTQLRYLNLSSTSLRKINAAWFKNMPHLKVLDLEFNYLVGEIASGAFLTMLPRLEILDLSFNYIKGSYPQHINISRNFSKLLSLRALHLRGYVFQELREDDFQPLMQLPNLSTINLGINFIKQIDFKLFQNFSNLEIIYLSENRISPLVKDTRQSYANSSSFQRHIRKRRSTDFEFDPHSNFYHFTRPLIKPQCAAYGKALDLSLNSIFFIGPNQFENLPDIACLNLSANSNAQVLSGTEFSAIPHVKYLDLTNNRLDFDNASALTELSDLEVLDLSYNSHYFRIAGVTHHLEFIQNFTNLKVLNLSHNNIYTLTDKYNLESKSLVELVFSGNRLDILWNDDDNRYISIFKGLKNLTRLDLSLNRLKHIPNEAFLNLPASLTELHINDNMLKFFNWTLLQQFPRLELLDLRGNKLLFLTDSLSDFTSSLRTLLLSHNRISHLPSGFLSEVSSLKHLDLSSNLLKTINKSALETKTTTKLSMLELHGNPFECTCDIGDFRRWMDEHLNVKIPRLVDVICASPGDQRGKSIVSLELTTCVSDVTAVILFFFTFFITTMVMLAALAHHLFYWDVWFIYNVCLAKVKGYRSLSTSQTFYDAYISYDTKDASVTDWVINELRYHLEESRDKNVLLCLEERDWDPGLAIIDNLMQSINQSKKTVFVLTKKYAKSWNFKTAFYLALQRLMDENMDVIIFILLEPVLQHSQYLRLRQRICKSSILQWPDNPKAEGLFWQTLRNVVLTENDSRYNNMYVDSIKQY

human TLR7 = target: T2, human TLR7 (Homo sapiens, UniProt Q9NYK1); assay: Human TLR7-specific reporter gene assay; details: for Agonistic Activity (μM) TLR7: EC50 in human TLR7-specific reporter gene assay, Inactive = EC50 >100 μM
T2 sequence (Q9NYK1 27-1049): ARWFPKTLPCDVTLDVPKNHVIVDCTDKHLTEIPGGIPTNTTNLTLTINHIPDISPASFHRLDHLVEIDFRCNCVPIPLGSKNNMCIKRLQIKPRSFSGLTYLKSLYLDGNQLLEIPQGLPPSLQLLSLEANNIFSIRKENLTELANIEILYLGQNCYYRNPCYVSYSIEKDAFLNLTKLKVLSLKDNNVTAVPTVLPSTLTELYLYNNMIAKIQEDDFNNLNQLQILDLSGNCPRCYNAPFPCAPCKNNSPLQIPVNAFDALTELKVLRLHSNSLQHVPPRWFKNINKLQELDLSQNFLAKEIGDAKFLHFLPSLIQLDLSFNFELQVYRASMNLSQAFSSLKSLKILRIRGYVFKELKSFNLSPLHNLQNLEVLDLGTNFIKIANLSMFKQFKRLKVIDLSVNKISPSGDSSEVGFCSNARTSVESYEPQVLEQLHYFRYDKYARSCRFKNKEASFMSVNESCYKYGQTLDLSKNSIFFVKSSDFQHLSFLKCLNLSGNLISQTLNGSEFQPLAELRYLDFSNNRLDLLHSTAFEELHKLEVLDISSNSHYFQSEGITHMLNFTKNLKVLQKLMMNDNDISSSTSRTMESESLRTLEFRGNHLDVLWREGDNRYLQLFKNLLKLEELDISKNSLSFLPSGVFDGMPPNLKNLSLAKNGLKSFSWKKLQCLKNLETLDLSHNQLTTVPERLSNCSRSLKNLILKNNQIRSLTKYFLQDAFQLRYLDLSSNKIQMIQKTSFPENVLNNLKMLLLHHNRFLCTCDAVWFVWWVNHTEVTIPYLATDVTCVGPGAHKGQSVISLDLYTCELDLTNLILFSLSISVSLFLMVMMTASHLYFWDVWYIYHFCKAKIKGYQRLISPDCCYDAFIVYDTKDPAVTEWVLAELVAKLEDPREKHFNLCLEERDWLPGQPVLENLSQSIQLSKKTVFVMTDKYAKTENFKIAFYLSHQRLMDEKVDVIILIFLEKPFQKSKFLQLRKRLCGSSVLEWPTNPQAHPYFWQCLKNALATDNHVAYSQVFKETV

human TLR7 or human TLR8 = details: primary TLR8/TLR7 reporter gene assays, receptor not given

| SMILES | Agonistic Activity (μM) TLR8 (human TLR8) | Agonistic Activity (μM) TLR7 (human TLR7) | other results |
| --- | --- | --- | --- |
| CCCCCc1nc2c(N)nc3ccccc3c2s1 [Compound 8e, 2-pentylthiazolo[4,5-c]quinolin-4-amine] |  |  | TLR8-agonistic potency/activity (in words) (human TLR8): attenuation of potency |
| CCCCCCc1nc2c(N)nc3ccccc3c2s1 [Compound 8f, 2-hexylthiazolo[4,5-c]quinolin-4-amine] | Inactive^a | Inactive |  |
| CCCCCCCc1nc2c(N)nc3ccccc3c2s1 [Compound 8g, 2-heptylthiazolo[4,5-c]quinolin-4-amine] | Inactive | Inactive |  |
| CCCCCCCCCc1nc2c(N)nc3ccccc3c2s1 [Compound 8h, 2-nonylthiazolo[4,5-c]quinolin-4-amine] | Inactive | Inactive |  |
| CC(C)c1nc2c(N)nc3ccccc3c2s1 [Compound 8i, 2-isopropylthiazolo[4,5-c]quinolin-4-amine] |  |  | reduction in TLR8-agonistic potency (human TLR8; isopropyl at C2, fold reduction): approximately ten-fold; attenuation of activity in TLR7-specific reporter gene assays (human TLR7; isopropyl at C2, fold attenuation): about two-fold |
| Nc1nc2ccccc2c2sc(CCCC(F)(F)F)nc12 [Compound 8q, 2-(4,4,4-trifluorobutyl)thiazolo[4,5-c]quinolin-4-amine] |  |  | TLR8-agonistic potency/activity (in words) (human TLR8): decrease in potency |
| CCCc1nc2c(N)nc3ccc(N)cc3c2s1 [Compound 10, 2-propylthiazolo[4,5-c]quinoline-4,8-diamine] |  |  | agonistic activity (in words) (human TLR7 or human TLR8): attenuated activity relative to 8c |
| CCCc1nc2c(N)nc3ccc(N=[N+]=[N-])cc3c2s1 [Compound 11, 8-azido-2-propylthiazolo[4,5-c]quinolin-4-amine] |  |  | agonistic activity (in words) (human TLR7 or human TLR8): inactive |
| CCCc1nc2c(N)nc3ccc(-n4cc(C(C)(C)O)nn4)cc3c2s1 [Compound 12a, 2-(1-(4-amino-2-propylthiazolo[4,5-c]quinolin-8-yl)-1H-1,2,3-triazol-4-yl)propan-2-ol] | Inactive | Inactive |  |
| CCCc1nc2c(N)nc3ccc(-n4cc(CO)nn4)cc3c2s1 [Compound 12b, (1-(4-amino-2-propylthiazolo[4,5-c]quinolin-8-yl)-1H-1,2,3-triazol-4-yl)methanol] | Inactive | Inactive |  |
| CCCc1nc2c(N)nc3ccc(-n4cc(-c5ccccc5)nn4)cc3c2s1 [Compound 12c, 8-(4-phenyl-1H-1,2,3-triazol-1-yl)-2-propylthiazolo[4,5-c]quinolin-4-amine] | Inactive | Inactive |  |
| CCCc1cn(-c2ccc3nc(N)c4nc(CCC)sc4c3c2)nn1 [Compound 12d, 2-propyl-8-(4-propyl-1H-1,2,3-triazol-1-yl)thiazolo[4,5-c]quinolin-4-amine] | Inactive | Inactive |  |
| CCCCCc1cn(-c2ccc3nc(N)c4nc(CCC)sc4c3c2)nn1 [Compound 12e, 8-(4-pentyl-1H-1,2,3-triazol-1-yl)-2-propylthiazolo[4,5-c]quinolin-4-amine] | Inactive | Inactive |  |
| CCCc1nc2c(N)nc3ccc(-n4cc([Si](C)(C)C)nn4)cc3c2s1 [Compound 12f, 2-propyl-8-(4-(trimethylsilyl)-1H-1,2,3-triazol-1-yl)thiazolo[4,5-c]quinolin-4-amine] |  | Inactive |  |
| CCCc1nc2c(N)nc3ccc(-n4ccnn4)cc3c2s1 [Compound 12g, 2-propyl-8-(1H-1,2,3-triazol-1-yl)thiazolo[4,5-c]quinolin-4-amine] | Inactive | Inactive |  |
| CCCCCCCCCCCCCCCCNc1nc2ccccc2c2sc(CCC)nc12 [Compound 15c, N-hexadecyl-2-propylthiazolo[4,5-c]quinolin-4-amine] | Inactive | Inactive |  |
| CCCc1nc2c(NC(C)=O)nc3ccccc3c2s1 [Compound 15e, N-(2-propylthiazolo[4,5-c]quinolin-4-yl)acetamide] |  | Inactive | TLR8-agonistic potency/activity (in words) (human TLR8): virtually inactive |
| CCCc1nc2c(NC(=O)CCN=[N+]=[N-])nc3ccccc3c2s1 [Compound 15k, 3-azido-N-(2-propylthiazolo[4,5-c]quinolin-4-yl)propanamide] |  | Inactive |  |
| C#CCCC(=O)Nc1nc2ccccc2c2sc(CCC)nc12 [Compound 15l, N-(2-propylthiazolo[4,5-c]quinolin-4-yl)pent-4-ynamide] |  | Inactive |  |
| CCCc1nc2c(NC(=O)OC)nc3ccccc3c2s1 [Compound 15m, methyl (2-propylthiazolo[4,5-c]quinolin-4-yl)carbamate] | Weak | Inactive |  |
| CCCc1nc2c(NC(=O)OCC)nc3ccccc3c2s1 [Compound 15n, ethyl (2-propylthiazolo[4,5-c]quinolin-4-yl)carbamate] | Inactive | Inactive |  |
| CCCCOC(=O)Nc1nc2ccccc2c2sc(CCC)nc12 [Compound 15o, butyl (2-propylthiazolo[4,5-c]quinolin-4-yl)carbamate] | Inactive | Inactive |  |
| CCCCCCCCOC(=O)Nc1nc2ccccc2c2sc(CCC)nc12 [Compound 15p, octyl (2-propylthiazolo[4,5-c]quinolin-4-yl)carbamate] | Inactive | Inactive |  |
| CCCc1nc2c(NS(C)(=O)=O)nc3ccccc3c2s1 [Compound 15r, N-(2-propylthiazolo[4,5-c]quinolin-4-yl)methanesulfonamide] |  | Inactive |  |
| CCCc1nc2c(NS(=O)(=O)CC)nc3ccccc3c2s1 [Compound 15s, N-(2-propylthiazolo[4,5-c]quinolin-4-yl)ethanesulfonamide] | Inactive | Inactive |  |
| CCCc1nc2c(NS(=O)(=O)CCC)nc3ccccc3c2s1 [Compound 15t, N-(2-propylthiazolo[4,5-c]quinolin-4-yl)propane-1-sulfonamide] | Inactive | Inactive |  |
| CCCCS(=O)(=O)Nc1nc2ccccc2c2sc(CCC)nc12 [Compound 15u, N-(2-propylthiazolo[4,5-c]quinolin-4-yl)butane-1-sulfonamide] | Inactive | Inactive |  |
| CCCc1nc2c(NS(=O)(=O)c3ccc(C)cc3)nc3ccccc3c2s1 [Compound 15v, 4-methyl-N-(2-propylthiazolo[4,5-c]quinolin-4-yl)benzenesulfonamide] | Inactive | Inactive |  |
